From patent US6896895B2, “Carotenoid esters, carotenoid-enriched feeds, and methods of pigmenting foods and foodstuffs” (DSM IP Assets B.V., priority 2000, dated 2005)

What was measured:
[1] = tested on: egg yolk; assay: Egg yolk colour: reflectance colorimetry and Roche Yolk Colour Fan; format: in vivo, laying hens (ISA Brown); conditions: egg yolk, laying hens, 5.0 mg/kg feed
Description: (§1) Pigmentation efficacy was assessed in egg yolk, in the back skin of the broiler carcass, and in broiler shanks by reflectance colorimetry accompanied by visual scoring (Roche Colour Fan). The deposition of the ethyl-β-apo-8′-carotenoate (control) and the other carotenoid esters was determined in egg yolk and in the broiler back skin. In addition, the carotenoid levels in plasma and abdominal fat were measured.
The trials were carried out following the standard experimental design used for egg yolk pigmentation trials at the Roche Research Center for Animal Nutrition (CRNA, F-68305 Village-Neuf, France). Each year in February the pigmentation trials are started with a new flock of layers. At the beginning of the trials the age of the laying hens (192 birds, type ‘ISA Brown’) were as follows:
(§2) Preceding the trials the hens were fed a low carotenoid basal diet (produced at the CRNA) without carotenoid supplementation for at least 28 days. During the trials, the control group received the low carotenoid basal diet containing less than 2 mg total xanthophylls per kg of feed. The other animals were fed this diet supplemented with the appropriate pigments for three weeks. The diet was given to the animals ad libitum in mash form. The hens had free access to tap water. Beside the unsupplemented control treatment, treatments were carried out involving the provision of supplemented feed, the results of these treatments being presented in Tables 7-9.
Egg yolk color was assessed as described by Steinberg, et al. (Arch. Geflügelk 64 (4), 180-187 (2000)). The yolks were manually separated from the whites of the eggs. The isolated yolks of three to six eggs were combined, weighed, and stirred with a glass rod until the color appeared homogeneous. The color hue was visually scored using the Roche Yolk Colour Fan (RYCF, version 1993). An aliquot of the pooled egg yolks was transferred into a glass cuvette yielding an approximately 2 cm thick layer. The color was then measured by means of a Dr. Lange Xeno Color LS 100 spectro-colorimeter with diffuse D65-illumination and a 8° viewing angle.
(§3) The color data were expressed as CIE L*a*b*-values including h*(hue) and C* (chroma). The values given in the tables per treatment and trial represent averages of color measurements of four egg yolk pools, ten broiler back skins, or ten broiler shanks (5 males and 5 females).

[2] = tested on: skin and shanks of broilers; assay: Reflectance colorimetry and visual classification of skin and shanks of broilers; format: in vivo, broiler chickens (Ross 308, Ross 508); parameters: key to Shanks Visual Classification / Skin Visual Classification: −; (+); +; ++ = good color; o = orange; conditions: dry carcasses, average over doses, Table 6
Description: as §1
(§4) The trials were carried out using chickens of the type Ross 308 (trials MC-24/98 and MC-02/99) and Ross 508 (trials MC-11/99, MC-16/99, MC-24/99, and MC-03/00) (Couvir de la Bohardière, F-49290 Saint Laurent de la Plaine). One-day old broiler chickens, separated by sex, were divided by weight into experimental groups of ten animals each and reared in floor pens littered with wood shavings. The chickens were fed a low carotenoid basal grower diet until day 22 (trials MC-24/98, MC-02/99, and MC-11/99) or until day 15 (trials MC-16/99, MC-24/99, and MC-03/00). The low carotenoid basal grower diet contained less than 2 mg total xanthophylls per kg of feed, and its composition is described in Table 2. For the subsequent experimental period of three weeks, the birds received the basal diet supplemented with an appropriate pigment. The feed was given in the form of crumbled pellets during the first week and as pellets thereafter. The animals had unrestricted access to feed and water. A given treatment involved one group of male and one group of female chickens. Each group of chickens was weighed at day 22 (trials MC-24/98, MC-02/99, and MC-11/99) or day 15 (trials MC-16/99, MC-24/99, and MC-03/00) and on day 43. On day 42, five chickens per group were selected at random, labelled, and blood samples were taken from the jugular vein. At the end of the experiment (day 44) the animals were slaughtered in a commercial slaughterhouse (Freyburger, Dannemarie, France). The following day, the color of the skin (hind back of carcasses) and the shanks of the labelled chicken were measured by reflectance colorimetry (Minolta CR 200 apparatus, CIE-Lab system). Samples of the dorsal skin and abdominal fat were obtained, pooled for each experimental group, and the carotenoid concentration was determined. The concentration of carotenoids in feed, plasma, skin, and abdominal fat was determined by standard procedures as described after Tables 1 and 2.
The color of broiler skin and shanks was measured using a tristimulus Minolta CR-300 Chromameter with diffuse D65-illumination and a 0° viewing angle. The color of the skin was read at three different points on the back of the dry broiler carcasses and average values of the triple measurements were recorded. The color of shanks was measured using single measurements at the ball between the toes.
as §3

[3] = Carotenoid ester content in plasma, back skin and abdominal fat of broilers (HPLC); format: in vivo, broiler chickens (Ross 308, Ross 508); conditions: average over doses, Table 4
Description: as §1, §4
The content of the various carotenoid esters in feed was determined according to the method of Schierle, et al. (J. Schierle , N. Faccin, V. Riegert, Analytical Methods for Vitamins and Carotenoids in Feed, Revised supplement: Determination of Stabilized Apocarotenoic Ester and Canthaxanthin in Premixes and Feeds, Roche publication no. 50771 (1995), publicly available from. F. Hoffmann-La Roche Ltd., CH-4070 Basel). This method was modified in that the mobile phase of the normal-phase HPLC contained 0.5% instead of 7% acetone in n-hexane, improving the separation of the E/Z-isomers of the carotenoid esters. Peaks were related to all-E- and Z-isomers of the various carotenoid esters by chromatography of heat-isomerized solutions of the respective reference substances in n-hexane. The HPLC system was calibrated with the all-E-isomer of ethyl β-apo-8′-carotenoate. The response factor of the various derivatives was deduced from that of ethyl β-apo-8′-carotenoate taking into account the respective molecular weight. The content of the Z-isomer fractions was calculated based on the response of the all-E-isomer and using a correction factor of 1.4 to account for the lower specific absorbance of the Z-isomers.
(§5) The HPLC-system for in-feed analysis was also used to quantify the carotenoid esters in egg yolk, broiler tissues, and broiler plasma, but the extraction procedure was different for the various matrices.
For plasma extraction, 1.0 g of the well-mixed plasma sample was introduced into a 10 ml test tube with 1.0 ml of demineralized water and 4.0 ml of ethanol, and the contents mixed on a Vortex shaker. […]

[4] = Carotenoid ester content and deposition rate in egg yolk of laying hens (HPLC); format: in vivo, laying hens (ISA Brown); conditions: egg yolk; for Deposition Rate Target Values % of Controls / Ethyl β-apo-8′-carotenoate Equivalents % of Controls: Table 8; for Deposition Rate % of Controls: Table 10
Description: as §1
Each year in February the pigmentation trials are started with a new flock of layers.
as §2, with “water.” for “water. Beside the unsupplemented control treatment, treatments were carried out involving the provision of supplemented feed, the results of these treatments being presented in Tables 7-9.”
Peaks were related to all-E- and Z-isomers of the various carotenoid esters by chromatography of heat-isomerized solutions of the respective reference substances in n-hexane. The HPLC system was calibrated with the all-E-isomer of ethyl β-apo-8′-carotenoate. The response factor of the various derivatives was deduced from that of ethyl β-apo-8′-carotenoate taking into account the respective molecular weight. The content of the Z-isomer fractions was calculated based on the response of the all-E-isomer and using a correction factor of 1.4 to account for the lower specific absorbance of the Z-isomers.
as §5
For the extraction of egg yolk, 10 g of pooled and homogenised yolk were mixed with 10 ml of demineralized water using a dispersion instrument (Polytron). 1.0 g of diluted egg yolk was introduced into a 10 ml test tube with 1.0 ml of demineralized water and 2.0 ml of ethanol, and the contents were mixed on a Vortex shaker. After addition of 4.0 ml of n-hexane, the mixture was further treated as described for plasma.

Row | Analytical Content as Equivalent of Ethyl β-apo-8′-carotenoate in % of control Fat [3] [%] | Analytical Content as Equivalent of Ethyl β-apo-8′-carotenoate in % of control Plasma [3] [%] | Analytical Content as Equivalent of Ethyl β-apo-8′-carotenoate in % of control Skin [3] [%] | Deposition Rate Target Values % of Controls ([4]; trial H-25/99, 5.0 mg/kg feed) [%] | Ethyl β-apo-8′-carotenoate Equivalents % of Controls ([4]; trial H-25/99, 5.0 mg/kg feed) [%] | Deposition Rate % of Controls ([4]; trial H-25/99, 5.0 mg/kg feed) [%] | Compound | Color Fan Value % of Controls ([1]; trial H-25/99, Table 8) [%] | Chroma C*ab % of Controls ([1]; trial H-25/99, Table 10) [%] | Color Fan Value % of Controls ([1]; trial H-25/99, Table 10) [%] | Color Hue h*ab % of Controls ([1]; trial H-25/99, Table 10) [%] | Shanks Chroma C*ab % of Controls [2] [%] | Shanks Color Hue h*ab % of Controls [2] [%] | Shanks Visual Classification [2] | Skin Chroma C*ab % of Controls [2] [%] | Skin Color Hue h*ab % of Controls [2] [%] | Skin Visual Classification [2] | other results
1 | 49 | 66 | 85 | 89 | 79 | 89 | CC(C=CC=C(C)C=CC1=C(C)CCCC1(C)C)=CC=CC=C(C)C=CC=C(C)C(=O)OC(C)CC(C)C (stereo not drawn) [(12), 4-methyl-2-pentyl beta-apo-8′-carotenoate] | 101 | 74 | 101 | 109 | 95 | 101 | + | 91 | 99 | + | –
2 | 50 | 76 | 77 | – | – | – | CC(C=CC=C(C)C=CC1=C(C)CCCC1(C)C)=CC=CC=C(C)C=CC=C(C)C(=O)OC1CCCC1 [(15), cyclopentyl beta-apo-8′-carotenoate] | – | – | – | – | 99 | 100 | ++ | 106 | 99 | ++ | Color Fan Value % of Controls ([1]; trial H-05/00, Table 8): 116%; Chroma C*ab % of Controls ([1]; trial H-05/00, Table 10): 107%; Color Fan Value % of Controls ([1]; trial H-05/00, Table 10): 116%; Color Hue h*ab % of Controls ([1]; trial H-05/00, Table 10): 101%; Deposition Rate Target Values % of Controls ([4]; trial H-05/00, 5.0 mg/kg feed): 95%; Ethyl β-apo-8′-carotenoate Equivalents % of Controls ([4]; trial H-05/00, 5.0 mg/kg feed): 95%; Deposition Rate % of Controls ([4]; trial H-05/00, 5.0 mg/kg feed): 95%
3 | 38 | 60 | 44 | 99 | 82 | 99 | CC(C=CC=C(C)C=CC1=C(C)CCCC1(C)C)=CC=CC=C(C)C=CC=C(C)C(=O)OC1CCCCC1 [(16), cyclohexyl beta-apo-8′-carotenoate] | 108 | 112 | 108 | 97 | 84 | 103 | (+) | 80 | 95 | + | –
